Columns and labels:
SUP-B15 = test: Antiproliferative activity against human SUP-B15 cells assessed as cell growth inhibition incubated for 72 hrs by Cell Titer-Glo Luminescent assay; format: functional, cell-based; settings: SUP-B15, 72 h
MEG-01 = test: Antiproliferative activity against human MEG-01 cells assessed as cell growth inhibition incubated for 72 hrs by Cell Titer-Glo Luminescent assay; format: functional, cell-based; settings: MEG-01, 72 h
KU812 cell line = test: Antiproliferative activity against human KU812 cell line assessed as cell growth inhibition incubated for 72 hrs by Cell Titer-Glo Luminescent assay; format: functional, cell-based; settings: KU812, 72 h
[1] = Mutagenicity in Salmonella typhimurium TA1535 incubated for 96 hrs by Ames test; format: toxicity; settings: salmonella enterica subsp. enterica serovar typhimurium
[2] = Mutagenicity in Salmonella typhimurium TA100 incubated for 96 hrs by Ames test; format: toxicity; settings: salmonella enterica subsp. enterica serovar typhimurium
[3] = Mutagenicity in Salmonella typhimurium TA98 incubated for 96 hrs by Ames test; format: toxicity; settings: salmonella enterica subsp. enterica serovar typhimurium
[4] = Mutagenicity in Salmonella typhimurium TA1537 incubated for 96 hrs by Ames test; format: toxicity; settings: salmonella enterica subsp. enterica serovar typhimurium

Compound	IC50 (SUP-B15)	IC50 (MEG-01)	IC50 (KU812 cell line)	Activity [1]	Activity [2]	Activity [3]	Activity [4]
COc1cc(Nc2c(C#N)cnc3cc(OCCCN4CCN(C)CC4)c(OC)cc23)c(Cl)cc1Cl [BOSUTINIB]	210 nM	13 nM	3.6 nM	–	–	–	–
COc1cc(Nc2c(C#N)cnc3cc(OCCON4CCN(C)CC4)c(OC)cc23)c(Cl)cc1Cl	–	–	–	Non-Toxic	Non-Toxic	Non-Toxic	Non-Toxic
